{"source": "paper PMC8000889", "about": "“Phenolic Compounds from Leaves and Flowers of Hibiscus roseus: Potential Skin Cosmetic Applications of an Under-Investigated Species” (Plants, 2021)", "target": "T1, collagenase (Collagenase Activity Assay Kit, Sigma-Aldrich)", "T1 construct": "gene colG", "assay": "FALGPA hydrolysis, absorbance at […] nm", "type": "biochemical", "conditions": "substrate FALGPA; 96-well plate, 200 μL, followed for 20 min"}
{"molecule": "O=c1c(O)c(-c2ccc(O)c(O)c2)oc2cc(O)cc(O)c12", "note": "[quercetin]", "values": [{"measurement": "IC50", "result": "5.6 ± 0.7", "unit": "µg/mL"}]}
